From patent publication US20100292216A1, “Methods and Compositions for the Treatment of Psychiatric Conditions” (ADAMAS PHARMACEUTICALS, INC., priority 2004, published 2010)
“Also recorded” adds a separate entry of the source. Where two headings read alike, the source gives them in different places.

Assays:
[1] = humans; cited from earlier work
[2] = cited from earlier work; for Tmax / Human PK T 1/2: parent drug
[3] = IR administration; memantine 10 mg bid, duloxetine 60 mg qd; cited from earlier work
[4] = test system: depression model (forced swim test (FST)); assay: Dose ranging study in depression model (forced swim test); assay type: in vivo
Source text: An isobolic experiment ensues where the drugs are combined in fractions of their EDXXs to add up to ED100 (i.e., ED50:ED50, ED25:ED75, etc.). The plot of the data is constructed. The experiment points that lie below the straight line between the ED50 points on the graph are indicative of synergy, points on the line are indicative of additive effects, and points above the line are indicative of inhibitory effects. The point of maximum deviation from the isobolic line is the optimal ratio. […] Similar protocols may be applied in a wide variety of validated animal models.

SMILES	Main Dose Dependent Adverse Event [1]	Tmax ([2]; humans) [h]	Dose Dependent Tox [1]	Tmax [3] [h]	ED50 [4]	Human PK T 1/2 (hrs) for ODV ([2]; humans, ODV) [h]	Tmax (hrs) for ODV ([2]; humans, ODV) [h]	Human PK T 1/2 ([2]; humans) [h]	T½ [3] [h]	T½ ([2]; head of release table, Example 3)
CN(C)CCC[C@@]1(c2ccc(F)cc2)OCc2cc(C#N)ccc21 [LEXAPRO/Escitalopram, escitalopram]	Sexual dys	5								
CC12CC3CC(C)(C1)CC(N)(C3)C2 [Memantine, 1-amino-3,5-dimethyladamantane]			required, hallucination	3	approximately 15 μM					
COc1ccc(C(CN(C)C)C2(O)CCCCC2)cc1 (stereo not shown) [EFFEXOR/Venlafaxine, venlafaxine]	nausea, constipation,; also recorded: anorexia, vomiting,; also recorded: somnolence,	2				11	3	5		
CNCC[C@H](Oc1cccc2ccccc12)c1cccs1 [CYMBALTA/Duloxetine, duloxetine]	Dizziness	6		6				12	12	
CC(NC(C)(C)C)C(=O)c1cccc(Cl)c1 (stereo not shown) [WELLBUTRIN/Bupropion, bupropion]	Anorexia, constipation,; also recorded: seizures (Bold Warning)	2						14		
O=C1CC2(CCCC2)CC(=O)N1CCCCN1CCN(c2ncccn2)CC1 [BUSPAR/Buspirone, buspirone]	Drowsiness, dizziness	1						7		
CNCCCN1c2ccccc2CCc2ccccc21 [NORPRAMIN/Desipramine, desipramine]	Hypotension, urinary; also recorded: retention, QTC	3 to 6						22		
Fc1ccc([C@@H]2CCNC[C@H]2COc2ccc3c(c2)OCO3)cc1 [PAXIL/Paroxetine, paroxetine]	Sexual dys	5						21		T½ = 21 hrs
